In ChEMBL document CHEMBL5726146, “Sulfone amide linked benzothiazole inhibitors of endothelial lipase” (2019):

Biological target: T1, Endothelial lipase (Homo sapiens, UniProt Q9Y5X9)
T1 sequence (Q9Y5X9 whole entry): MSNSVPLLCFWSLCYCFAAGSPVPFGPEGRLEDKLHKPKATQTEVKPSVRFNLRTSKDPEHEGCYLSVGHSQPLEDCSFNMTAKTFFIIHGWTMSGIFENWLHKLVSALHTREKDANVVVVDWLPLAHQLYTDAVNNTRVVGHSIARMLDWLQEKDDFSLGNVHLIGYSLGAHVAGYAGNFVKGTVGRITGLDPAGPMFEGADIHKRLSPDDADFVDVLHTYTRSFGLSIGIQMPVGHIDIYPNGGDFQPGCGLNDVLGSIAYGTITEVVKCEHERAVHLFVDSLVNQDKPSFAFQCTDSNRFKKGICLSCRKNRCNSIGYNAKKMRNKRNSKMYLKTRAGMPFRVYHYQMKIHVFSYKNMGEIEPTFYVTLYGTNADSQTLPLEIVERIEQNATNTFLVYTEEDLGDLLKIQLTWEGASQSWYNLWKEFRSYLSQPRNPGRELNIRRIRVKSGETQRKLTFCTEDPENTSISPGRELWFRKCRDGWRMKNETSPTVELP
Assay: Biological Activity: Endothelial lipase (EL) and hepatic lipase (HL) activities were measured using a fluorescent substrate, A10070, (Invitrogen, CA) doped into an artificial vesicle containing DMPG (Avanti Polar Lipids) as the excipient. Vesicles were prepared by combining 571 μL of 29 mM DMPG in a 1:1 mixture of MeOH and CHCl3 with 2000 μL of 1 mM A10070 in a 1:1 mixture of MeOH and CHCl3. The mixture was dried under nitrogen in multiple vials then resuspended in 20 mL total volume of 50 mM HEPES pH 8.0 buffer containing 50 mM NaCl and 0.2 mM EDTA. The sample was allowed to sit at room temperature for 15 min and then was sonicated 3×4 mins on ice with a Branson Sonicator using duty cycle 1. This preparation provides vesicles with a mole fraction of 0.11 for the FRET substrate.The enzymatic assay was measured using 384-well white Optiplates. Each well contained 20 μL of assay buffer (50 mM HEPES pH 8.0, 50 mM NaCl and 1 mM CaCl2) and 0.25 μL of a DMSO solution containing a compound of interest. EL or HL (10 μL) was added and allowed to incubate with the compound for 30 min at 37° C. The source of EL was conditioned media obtained from HT-1080 cells that were transformed using RAGE technology (Athersys) to overexpress endogenous EL, and HL was partially purified from conditioned media obtained from COS cells overexpressing HL. The reaction was started by the addition of 10 μL of a 1:10 dilution of vesicles. The final total reaction volume was […]. The reaction rates were measured on a Gemini plate reader with an excitation wavelength of 490 nm and an emission wavelength of 530 nm. Readings were taken over a period of 60 minutes, and the slope between 300 and 900 secs of the readout was used to calculate the rate of the reaction.

SMILES	IC50
CS(=O)(=O)C(C(=O)NCC(=O)NC1CC1)c1nc2cc(F)c(-c3ccc(=O)n(-c4ccccc4)c3)cc2s1 (configuration not stated)	6 nM
CC(=O)Nc1ccc(-c2cc3sc(C(C(=O)NCC(=O)NC4CC4)S(C)(=O)=O)nc3cc2F)cc1 (configuration not stated)	9 nM
COCCS(=O)(=O)C(C(=O)NCC(=O)NC1CC1)c1nc2cc(-c3ccc(OC(C)C)nc3)ccc2s1 (configuration not stated)	11 nM
Cn1nccc1-c1cc2sc(C(C(=O)NCC(=O)NC3CC3)S(C)(=O)=O)nc2cc1F (configuration not stated)	26 nM
C[C@H]1CN(C(=O)c2ccc(-c3ccc4nc(C(C(=O)NCC(=O)NC5CC5)S(C)(=O)=O)sc4c3)cc2)CCO1 (some centres not stated)	31 nM
COCCS(=O)(=O)C(C(=O)NCC(=O)NC1CC1)c1nc2ccc(-c3ccc(C(N)=O)c(Cl)c3)cc2s1 (configuration not stated)	33 nM
CS(=O)(=O)C(C(=O)NCC(=O)NC1CC1)c1nc2cc(-c3ccccc3)c(F)cc2s1 (configuration not stated)	4 nM
CS(=O)(=O)C(C(=O)NCC(=O)NC1CC1)c1nc2cc(F)c(-c3ccc4c(c3)CCCN4C(=O)Cc3c(F)cccc3F)cc2s1 (configuration not stated)	7 nM
COCCS(=O)(=O)C(C(=O)NCC(=O)NC1CC1)c1nc2cc(-c3ccc(C)nc3)ccc2s1 (configuration not stated)	34 nM
COCCS(=O)(=O)C(C(=O)NCC(=O)NC1CC1)c1nc2ccc(-c3cccnc3C(F)(F)F)cc2s1 (configuration not stated)	37 nM
O=C(CNC(=O)C(c1nc2ccc(-c3ccc(F)nc3)cc2s1)S(=O)(=O)C1CCOCC1)NC1CC1 (configuration not stated)	47 nM

The next lines start with the values.

IC50	SMILES
102 nM	O=C(CNC(=O)C(c1nc2ccc(-c3cccnc3F)cc2s1)S(=O)(=O)c1ccccc1)NC1CC1 (configuration not stated)
118 nM	COCCS(=O)(=O)C(C(=O)NCC(=O)NC1CC1)c1nc2ccc(-c3ccc(N4CCCC4)nc3)cc2s1 (configuration not stated)
3 nM	COCCS(=O)(=O)C(C(=O)NCC(=O)NC1CC1)c1nc2cc(F)c(-c3ccc4c(c3)CCN4)cc2s1 (configuration not stated)
106 nM	COCCS(=O)(=O)C(C(=O)NCC(=O)NC1CC1)c1nc2c(F)cc(-c3cccnc3F)cc2s1 (configuration not stated)
58 nM	O=C(CNC(=O)C(c1nc2cc(F)c(-c3ccc(F)nc3)cc2s1)S(=O)(=O)c1ccccc1F)NC1CC1 (configuration not stated)
1 nM	CS(=O)(=O)C(C(=O)NCC(=O)NC1CC1)c1nc2cc(F)c(-c3ccc(C(=O)NCCc4ccccc4)cc3)cc2s1 (configuration not stated)
